Data: patent US20080221074A1, “Drug Screen and Treatment Method” (priority 2006, published 2008)

What was measured:
[1] = system: osteoblasts and osteocytes; assay: osteoblast and osteocyte apoptosis in vertebral bone of ovariectomized mice (TUNEL); format: in vivo, Swiss Webster mice
Source text: The degree of apoptosis of osteoblasts and osteocytes in murine vertebral bone as a function of estrogen deficiency was examined. Swiss Webster mice (four months old) were ovariectomized. Twenty-eight days later, the animals were sacrificed, vertebrae were isolated, fixed and embedded, and then undecalcified in methacrylate.

[2] = system: bone marrow-derived mast cells (BMMC); assay: mast cell stimulus-coupled degranulation (β-glucuronidase release); format: cell-based, Balb/C mice; conditions: no stimulus
Method: In another protocol, a population of mast cells was cultivated from murine bone marrow as follows. Briefly, bone marrows from Balb/C mice were flushed from the femur using PBS and a 27 g needle. The cells were cultured in a mixture of ⅔ RPMI-1640 with 19% FBS and cells that secreted IL-3. The bone marrow cells were allowed to differentiate for 18-25 days in the IL-3-containing mixture before being used for experiments. Bone marrow cells cultured in this manner have a phenotype similar to mucosal mast cells and are referred to as bone marrow-derived mast cells (BMMC).
The homogeneity of the in vitro propagated mast cells was checked by conventional flow cytometry techniques and staining for cell-type specific markers. Between days 14 and 21 of propagation, mature mast cells were harvested and prepared for the test cultures. The objective was to assess of the effect of compounds such as dehydroepiandrosterone on mast cell stimulus-coupled degranulation. Prepared mast cells were dispensed into test culture wells at a density of 1×10^7 cells/mL. In control cultures, mast cells were induced to degranulate after cross linking of IgE receptors with IgE antigen-antibody complexes. […] There was no detectable degranulation of mast cells as measured by release of β-glucuronidase from cytosolic storage granules of the cells in the absence of the stimulus. […]

[3] = system: EAE; assay: PLP-induced EAE, treatment from clinical onset; format: in vivo, female SJL mice; conditions: 0.1 mg q.d. po from clinical onset
Method: The protocol for conducting the EAE animal model was described in (D. Auci et. al., Ann. NY. Acad. Sci. USA, 1051:730-42, 2005). Female SJL mice (6-8 week old, average body weight of 25 g) obtained from Charles-River were kept under standard laboratory conditions (non specific pathogen germ free) with ad libitum food and water and were allowed to adapt one week to their environment before commencing the study. […] EAA was induced with 200 μL of a 1:1 emulsion of 75 μg proteolipid protein (PLP) and 6 mg/mL Mycobacterium tuberculosis H37RA in complete Freund's adjuvant (CFA). The 200 μL injection was divided among four sites that drained into the auxiliary and inguinal lymphnodes. Pertussis toxin was used as a co-adjuvant and was administered i.p. at 200 ng/mouse on day zero and day two post immunization. Groups were treated with 0.1 mg of compound in 100 μL vehicle, or with vehicle alone, q.d. po (oral gavage) starting at clinical onset of disease and continuing through to day 30 post immunization. […] Clinical grading was carried out by an observer unaware of the treatment: 0=no illness, 1=flaccid tail, 2=moderate paraparesis, 3=severe paraparesis, 4=moribund state, 5=death.

[4] = system: human MG-63 osteosarcoma cell line; assay: reversal of dexamethasone effects in MG-63 osteoblasts; format: cell-based; conditions: 30 nM dexamethasone; compound concentration stated with each value (17α-ethynyl triol: 1 nM)
[5] = degree of sulfation and glucuronidation (other protocols); format: in vitro ADME; conditions: compared to diols
Source text: Despite that, the compound androst-5-ene-3β,7β,16α,17β-tetrol was active as described above when administered orally to mice in a diabetes treatment model. […] This activity may have arisen at least partly from the low metabolism of tetrol compounds in vivo.

[6] = biological target: estrogen receptor-β (Homo sapiens, UniProt Q92731); assay: interaction with sex hormone receptor; format: binding
Chain of estrogen receptor-β (Q92731 whole entry, species assumed): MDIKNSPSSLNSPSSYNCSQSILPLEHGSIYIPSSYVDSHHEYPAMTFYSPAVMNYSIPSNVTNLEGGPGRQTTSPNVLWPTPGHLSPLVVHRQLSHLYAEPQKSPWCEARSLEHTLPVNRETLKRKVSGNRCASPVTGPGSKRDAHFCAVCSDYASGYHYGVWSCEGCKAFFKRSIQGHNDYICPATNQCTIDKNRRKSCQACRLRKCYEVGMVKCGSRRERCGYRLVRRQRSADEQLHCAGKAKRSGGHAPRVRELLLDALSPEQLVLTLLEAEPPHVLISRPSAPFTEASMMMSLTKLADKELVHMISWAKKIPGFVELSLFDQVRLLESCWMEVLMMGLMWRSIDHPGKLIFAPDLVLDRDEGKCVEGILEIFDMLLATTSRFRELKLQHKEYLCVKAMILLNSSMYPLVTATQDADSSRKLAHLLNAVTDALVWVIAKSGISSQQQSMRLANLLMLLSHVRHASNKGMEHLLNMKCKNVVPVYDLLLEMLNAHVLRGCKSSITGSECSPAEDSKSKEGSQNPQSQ

[7] = biological target: estrogen receptor-α (Homo sapiens, UniProt P03372); assay: interaction with sex hormone receptor; format: binding
Chain of estrogen receptor-α (P03372 whole entry): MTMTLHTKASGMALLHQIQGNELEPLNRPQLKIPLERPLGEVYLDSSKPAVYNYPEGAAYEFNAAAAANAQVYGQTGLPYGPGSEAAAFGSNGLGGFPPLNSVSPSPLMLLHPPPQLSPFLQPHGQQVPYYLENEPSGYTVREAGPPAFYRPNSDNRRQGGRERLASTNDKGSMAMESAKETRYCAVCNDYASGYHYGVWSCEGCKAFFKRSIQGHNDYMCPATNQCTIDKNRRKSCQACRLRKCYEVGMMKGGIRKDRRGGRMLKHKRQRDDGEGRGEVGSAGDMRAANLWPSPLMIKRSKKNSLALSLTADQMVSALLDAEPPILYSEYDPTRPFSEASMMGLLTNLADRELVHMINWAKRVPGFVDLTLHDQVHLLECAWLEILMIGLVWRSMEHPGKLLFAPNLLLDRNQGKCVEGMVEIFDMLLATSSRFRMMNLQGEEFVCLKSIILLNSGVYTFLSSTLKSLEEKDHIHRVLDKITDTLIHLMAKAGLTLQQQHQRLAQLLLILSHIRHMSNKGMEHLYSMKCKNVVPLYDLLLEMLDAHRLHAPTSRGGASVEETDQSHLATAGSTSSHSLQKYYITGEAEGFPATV

[8] = system: insulin sensitivity in db/db diabetic mice; assay: hyperinsulinemic-euglycemic clamp; format: in vivo
Method: Glucose lowering in 8 week old db/db diabetic mice. The hyperinsulinemic-euglycemic clamp protocol was conducted to measure insulin sensitivity in vivo. In this procedure, insulin was administered to raise the insulin concentration while glucose was infused to maintain euglycemia or a fixed, normal blood glucose level (about 180 mg/dL). […] The objective of this protocol was to investigate characterize the capacity of 17α-ethynylandrost-5-ene-3β,7β,17β-triol and androst-5-ene-3β,7β,16α,17β-tetrol to ameliorate systemic insulin resistance and improve whole body glucose disposal in the hyperinsulinemic-euglycemic clamp model. The degree of skeletal muscle and hepatic insulin sensitivity and tissue specific glucose uptake were also assessed. The animals were dosed daily by oral gavage for 14 days. On Day 10 of treatment catheters were implanted in the carotid artery and jugular vein. On the day of the clamp (day 14) the compound was administered at 7:30 am.
Body weight and glucose concentration were assessed on day 0, 7 and day 14 of treatment. On day 14 a euglycemic hyperinsulinemic clamp was performed. Food was removed at 7:30 am at 10:30 a primed continuous infusion of [3-^3H]-glucose (0.05 μCi/min). A baseline blood sample was taken at 12:50 (−10 min) and at 1:00 (0 min) a euglycemic hyperinsulinemic clamp was initiated by administering 10 mU /kg/min of insulin. Glucose was infused at a variable rate to clamp the glucose concentration at ˜180 mg/dl. A bolus of [^14C]-2deoxyglucose was given at the end of the study to assess tissue specific glucose uptake. Plasma ^14C 2-deoxyglucose was assessed at 122, 125, 130, 135, 145 min. […]
Analysis was conducted as follows. Plasma samples were deproteinized with Ba(OH)2 (0.3 N) and ZnSO4 (0.3 N), dried and radioactivity was assessed on scintillation counter (Packard TRICARB 2900 TR, Meriden, Conn.). […] One supernatant was directly counted to determine radioactivity from both [14C] […] A second aliquot was treated with Ba(OH)2 and ZnSO4 to remove ^14C DGP and any tracer incorporated into glycogen and then counted to determine radioactivity from free [^14C]DG(2). [^14C]DGP was calculated as the difference between the two aliquots. […] Rg, an index of tissue specific glucose uptake was calculated as previously described (E.W. Kraegen et al., Am. J. Physiol., 248:E353-E362, 1985). Whole body glucose turnover was calculated as the ratio of the ^3H glucose infusion rate (dpm/kg/min) and arterial plasma glucose specific activity (dpm/mg). Endogenous glucose production was calculated as the difference between the whole body glucose turnover and the exogenous glucose infusion rate (R. N. Bergman et al., Endocr. Rev., 6:45-86, 1985).

[9] = system: LPS-induced acute lung inflammation; assay: LPS-induced lung injury; format: in vivo, C57/BL6 mice; conditions: 40 mg/Kg orally; 48 h after LPS

Structure (SMILES): C[C@]12CC[C@H]3[C@@H](CCC4=C[C@H](O)CC[C@@H]43)[C@@H]1CC[C@@H]2O [4-estrene-3α,17β-diol]
- osteoblast and osteocyte apoptosis [1]: reduce apoptosis

Structure (SMILES): C[C@]12CC[C@H](O)CC1=CC[C@@H]1[C@@H]2CC[C@]2(C)C(=O)CC[C@@H]12 [dehydroepiandrosterone]
- degranulation with compound alone [2]: no measurable degranulation

Structure (SMILES): C[C@]12CC[C@H]3[C@@H]([C@@H](O)C=C4C[C@H](O)CC[C@@]43C)[C@@H]1C[C@@H](O)[C@@H]2O [androst-5-ene-3α,7β,16α,17β-tetrol]
- course of EAE compared to vehicle-treated mice [3]: very similar to that observed in the vehicle-treated mice
- reversal of the decrease in osteoprotegerin synthesis [4]: normal osteoprotegerin levels at 10 nM
- degree of sulfation and degree of glucuronidation [5]: low

Structure (SMILES): C[C@]12CC[C@H]3[C@@H]([C@@H](O)C=C4C[C@@H](O)CC[C@@]43C)[C@@H]1C[C@@H](O)[C@@H]2O [androst-5-ene-3β,7β,16α,17β-tetrol]
- interaction with estrogen receptor-β [6]: do not interact
- interaction with estrogen receptor-α [7]: do not interact
- course of EAE compared to vehicle-treated mice [3]: significantly improved course of EAE
- reversal of the decrease in osteoprotegerin synthesis [4]: normal osteoprotegerin levels at 0.1 μM
- glucose uptake in the gastrocnemius muscle ([8]; ^14C-2-deoxyglucose, p<0.05): more effective
- glucose infusion rate compared to vehicle control ([8]; oral gavage 14 days, insulin 10 mU/kg/min): increased the glucose infusion rate
- degree of sulfation and degree of glucuronidation [5]: low
- IL-6 level in BAL vs vehicle [9]: reduced levels
- MPO level vs vehicle [9]: reduced levels
- TNFα level in BAL vs vehicle [9]: reduced levels
